Results published in patent US20130178479A1, “PHARMACEUTICAL COMBINATIONS” (NOVARTIS AG, priority 2010, published 2013).
Like-named read-outs stand apart in the source and are kept apart here. One block for each molecule: values may come before it.

What was measured:
[1] = tested on: p4EBP1 T37/46 in NCI-H23 cells; experiment: High content p4EBP1 T37/46 assay in NCI-H23 cells; format: cell-based, human
Protocol: (§1) Automated imaging assay (or High-Content assay) for pS6 S240/244 and p4EBP1 T37/46: 2-4×10^3 cells were seeded in clear-bottom 384-well black plates (Greiner #781091) in 30 μl per well growth media 24 hours prior to treatment Compounds were added to the cell in 10 μl growth media and incubated overnight; the cells were then fixed by addition of 10 μl per well Mirsky's fixative (National Diagnostics #HS-102) for 1 hour, washed seven times with 30 μl/well TBS buffer using a BioTek plate washer, and blocked with 100 μl/well blocking buffer (TBS with 0.1% BSA and 0.1% Triton X-100). The anti-Ser 240/244 -RPS6 antibody (CST #4838, 1:150 dilution) or anti-Thr 37/46-p4EBP1 antibody (CST #2855, 1:150 dilution) were then incubated overnight at 4° C. After seven times wash with TBS, the cells were stained with Cy5-conjugated goat-anti-rabbit IgG 2nd antibody (Millipore #AP187S, 1:150 dilution) and DNA staining dye Neediest 33342 for 1.5 hours. The phospho-S6 and phospho-4EBP1 signals were-imaged using InCell 1000 Analyzer (BN_staining—10×protocol) at 10× magnification, 3 fields per well after seven times wash with TBS. For Hoechst 33342 signal; the excitation and emission wave lengths are 360 nm (D360—40× filter) and […] (HQ460—40M filter), respectively, and for Cy5, 620 nm (HQ620—60× filter) for both the excitation and emission wave lengths. Analysis of the images was done using the InCell Investigator software.
(§2) Method for calculating the effect of the Combination: To evaluate the everolimus and Compound A combination effect in a non-bias way and to identify synergistic effect at all possible concentrations, the combination studies were conducted with a “dose matrix”, where a combination is tested in all possible permutations of serially-diluted everolimus and Compound A single agent doses, in all combination assays, compounds were applied simultaneously. Single agent dose responding curves, IC50, IC90, and the Synergy are all analyzed using Chalice software (CombinatoRx, Cambridge, Mass.). Synergy was calculated by comparing a combination's response to those of its single agents, against the drug-with-itself dose-additive reference model. Deviations from dose additivity can be assessed visually on an Isobologram or numerically With a Combination Index. Excess inhibition compare to additivity can also be plotted as a full dose-matrix chart to capture where the synergies occur. To quantify the overall strength of combination effects, a volume score VHSA=ΣXYInfXInfY(Idata−IHSA) is also calculated between the data and the highest-single-agent surface, normalized for single agent dilution factors fX,fY[ref].
The cells were plated at 3000 cells per well in 384 well plates in quadruplicates, and treated with compound for 18 hrs before the measurement (FIGS. 1-2).

[2] = tested on: p4EBP1 T37/46 in MFE296 cells; experiment: High content p4EBP1 T37/46 assay in MFE296 cells; format: cell-based, human; settings: for IC50 / IC90: Homo sapiens, MFE-296
Protocol: as §1, §2
p4EBP1 signal. […] The cells were plated at 4000 cells/well in 384 well plates in duplicates, and treated with compound for 18 hrs before the measurement (FIG. 7).

[3] = tested on: pS6 S240/244 in NCI-H23 cells; experiment: High content pS6 S240/244 assay in NCI-H23 cells; format: cell-based; settings: Homo sapiens, single agent, NCI-H23, 18 hrs; for IC50: read-out: IC50, inhibition of pS6 signal; for IC90: read-out: IC90, inhibition of pS6 signal
Protocol: as §1, §2
The experiment setup is identical to the p4EBP1 assay used for the NCI-H23 cell model (FIGS. 3-4). […]

[4] = tested on: KMS-11 human Multiple Myeloma cancer cells; experiment: Cell proliferation assay (CellTiter-Glo) in KMS-11; format: cell-based; settings: for IC50: Homo sapiens
Protocol: (§3) Celt Proliferation Assay: Cell viability was determined by measuring cellular ATP content using the CellTiter-Glo® Luminescent Cell Viability Assay (Promega #G7573) according to manufacturer's protocol. Briefly, 1500-50000 cells were plated on either 384 or 96 well plates in 30 μl (384 well) or 100 μl (96 well) growth media, cells were: allowed to attach overnight and followed by 72 hrs of incubation with various concentration of drugs or drug combinations (10 μl per well in 384 well plates), at the end of the drug treatment, 30 μl of the CellTiter-Glo regent were added to each well (384 well plates) to lyse the cell, and luminescence signals were recorded on a Envision plate reader.
as §2
The cells were plated, at 50000 cells/well in 96 well plates in triplicates, and treated with compound for 72 hrs prior to the measurement (FIG. 11). The following “dose matrix”, everolimus; 8 dose, 3×, 500 nM to 0.23 nM, Compound A: 8 dose, 2×, 1 μM to 8 nM, was applied.

[5] = tested on: NCI-H23 human non-small cell lung cancer cells; experiment: Cell proliferation assay (CellTiter-Glo) in NCI-H23; format: cell-based; settings: for IC50: Homo sapiens
Protocol: as §3, §2
The experiment setup is identical to the p4EBP1 high content assay as used for the NCI-H23 cell model, (FIG. 5). And the same “doss matrix” (everolimus; 5 dose, 4×, 1.2 μM to 5 nM, Compound A: 9 dose, 2×, 1.2 μM to 5 nM) was applied.
Another experiment was conducted to evaluate the combination effect using cell titer glow (CTG) assay, this time, cells were plated in 384 well plates at 1000 cells/well in triplicates, and treated with compound for 72 hours before the measurement (FIG. 6). in this extended “dose matrix” study, everolimus was subjected to a 11 dose 4× serial dilution with the highest dose at 1 uM and the low dose at about 1 pM, and Compound A was subjected to a 9 dose 4× serial dilution with high dose at 1 μM and low dose at about 16 pM.

[6] = with 5 nM everolimus vs Compound A alone
[7] = NCI-H23, 72 h, single agent, extended dose matrix, 72 hours (FIG. 6), read-out: IC50, inhibition of cell growth
[8] = single agent, dose matrix 1.2 μM to 5 nM (FIG. 5)
[9] = single agent, extended dose matrix, 72 hours (FIG. 6)

IC90 ([1]; Homo sapiens, in combination with 5 nM everolimus, NCI-H23, read-out: IC90 for Compound A, p4EBP1 signal): 5 nM | IC50 ([1]; Homo sapiens, single agent, NCI-H23, 18 hrs, read-out: IC50, reduction of p4EBP1 signal): 10 nM | IC90 ([1]; Homo sapiens, single agent, NCI-H23, 18 hrs, read-out: IC90, reduction of p4EBP1 signal): 80 nM | reduction of IC90 for Compound A, p4EBP1 signal [1, 6]: 16 fold | IC50 ([2]; in presence of trace amount of everolimus, MFE296, read-out: IC50 for Compound A, p4EBP1 signal): 0.24 nM | IC90 ([2]; in presence of trace amount of everolimus, MFE296, read-out: IC90 for Compound A, p4EBP1 signal): 4 nM | IC50 ([2]; single agent, MFE296, 18 hrs, read-out: IC50, reduction of p4EBP1 signal): 16 nM | IC90 ([2]; single agent, MFE296, 18 hrs, read-out: IC90, reduction of p4EBP1 signal): ~100 nM | IC50 [3]: 5 nM | IC90 [3]: ~20 nM | IC50 ([4]; concomitant everolimus, KMS-11, read-out: IC50 for Compound A, cell growth): 16 nM | IC50 ([4]; single agent, KMS-11, 72 hrs, read-out: IC50, inhibition of cell growth): ~80 nM | IC50 [5, 7]: 80 nM | IC50 ([5]; NCI-H23, in combination with 5 nM everolimus, read-out: IC50 for Compound A, cell growth): 10 nM | IC50 ([5]; NCI-H23, single agent, dose matrix 1.2 μM to 5 nM (FIG. 5), read-out: IC50, inhibition of cell growth): 78 nM | reduction on IC50 of Compound A, cell growth [5, 6]: 8 fold
Structure (SMILES): Cn1c(=O)n(-c2ccc(C(C)(C)C#N)cc2)c2c3cc(-c4cnc5ccccc5c4)ccc3ncc21 [Compound A, 2-methyl-2-[4-(3-methyl-2-oxo-8-quinolin-3-yl-2,3-dihydro-imidazo[4,5-c]quinolin-1-yl)-phenyl]-propionitrile]
concentration at which p4EBP1 signal reduction plateaued (complete inhibition) ([1]; single agent, NCI-H23): ≥ 167 nM | full effective dose amount of Compound A ([4]; Compound A alone, KMS-11): > 125 nM | Amax ([4]; single agent, KMS-11, 72 hrs): 0.7 | full effective dose amount of Compound A ([4]; with trace amount (sub-nanomolar) of everolimus, KMS-11): 16 to 82 nM | Amax, the maximum fraction of inhibition [5, 8]: 0.7 | growth inhibition compare to DMSO control (at Amax) [5, 8]: 70% | Amax [5, 9]: 0.7

IC50 [3]: < 5 nM | IC90 [3]: ~10 nM | IC50 [5, 7]: > 1000 nM | IC50, inhibition of cell growth [5, 8]: never achieved an IC50
Structure (SMILES): CO[C@H]1C[C@@H]2CC[C@@H](C)[C@@](O)(O2)C(=O)C(=O)N2CCCC[C@H]2C(=O)O[C@H]([C@H](C)C[C@@H]2CC[C@@H](OCCO)[C@H](OC)C2)CC(=O)[C@H](C)/C=C(\C)[C@@H](O)[C@@H](OC)C(=O)[C@H](C)C[C@H](C)/C=C/C=C/C=C/1C [everolimus, 40-O-(2-hydroxyethyl)-rapamycin, reference compound]
p4EBP1 signal reduction ([1]; single agent, all concentrations tested 5 nM-1.2 μM, NCI-H23): approximately 30% | p4EBP1 signal reduction ([2]; single agent, all concentrations tested 0.5 pM-500 nM, MFE296): approximately 20% | Amax ([4]; single agent, KMS-11, 72 hrs): 0.28 | Amax, the maximum fraction of inhibition [5, 8]: 0.3 | Amax [5, 9]: 0.3
